Publication PMC11513842, “Development of an orally bioavailable CDK12/13 degrader and induction of synthetic lethality with AKT pathway inhibition” (Cell Reports Medicine, 2024)
pIC50: −log10 of the molar value. Where two headings read alike, the source gives them in different places.

Experiments:
PC310 PDX = test: PC310 patient-derived xenograft efficacy; type: in vivo, mouse; conditions: i.v. 30 mg/kg 3x/week
Method: (§1) Six-week-old male CB17SCID mice obtained from Charles River (Stock # 236), were used to establish subcutaneous tumors on both dorsal flanks. Tumor dimensions were measured biweekly using digital calipers, applying the formula (π/6) (L × W^2), where L and W represent tumor length and width, respectively. At the study conclusion, mice were euthanized, and tumors were excised and weighed. The University of Michigan Institutional Animal Care and Use Committee (IACUC) approved all in vivo studies.
(§2) WA74 PDX model was developed at the University of Michigan during collection of a rapid autopsy case as part of the Michigan Legacy Tissue Program (MLTP). PC310 PDX model was obtained from Erasmus Medical Center, Rotterdam, the Netherlands. Both PDX lines were propagated in male CB17SCID mice by surgically implanting 2 mm^3 tumor fragments, coated with 100% Matrigel, into both flanks of mice. When tumors reached approximately 200 mm^3, mice were randomized into treatment groups. These groups received either 30 mg/kg YJ9069 via intravenous injection or 100 mg/kg YJ1206 by oral gavage, both administered three times per week, with or without 15 mg/kg uprosertib by oral gavage five days per week for 3–4 weeks. In accordance with IACUC guidelines, the maximum tumor size was limited to 2.0 cm in any dimension, and mice were euthanized if xenografts reached this endpoint.

[1] = Toxicity study in CD-1 immune-competent mice; type: in vivo, mouse
[2] = Pharmacokinetic profile in CD-1 mice; type: in vivo; conditions: plasma, CD-1 mouse; for AUC: read-out: AUC(0-⊠)
[3] = test system: benign immortalized cell lines (PrEC, WPMY-1, BPH-1, RWPE1, PNT2, MCF10A, MCF12A); test: Cell viability, benign immortalized cell lines; type: cell-based; conditions: Homo sapiens, 120 h; most benign immortalized cell lines, 5 days; read-out: half-maximal inhibitory concentration [IC50]
Method: (§3) Cells were seeded in 96-well plates and incubated at 37°C with 5% CO2 overnight. A series of compound dilutions were added into the cells. After 5 days incubation, cell proliferation was tested using the CellTiter-Glo assay (Promega) according to the manufacturer’s protocol. Luminescence was measured using the Infinite M1000 Pro plate reader (Tecan). Data analysis was conducted using GraphPad Prism software.

prostate cancer cells = test: Cell viability, prostate cancer cells; type: cell-based; conditions: Homo sapiens, Figure 3A
Method: as §3

[4] = Body weight of treated animals in tumor models; type: in vivo, mouse; conditions: all tumor models (castrated VCaP, WA74 PDX, PC310 PDX), i.v. 30 mg/kg
Method: as §1
For the VCaP castration-resistant tumor model, 3×10^6 VCaP cells were subcutaneously injected into both dorsal flanks of mice using a serum-free medium mixed with 50% Matrigel (BD Biosciences). Upon tumors reaching palpable size (∼200 mm^3), animals underwent castration. When tumors regrew to their pre-castration size, mice were randomized for treatment with 30 mg/kg YJ9069 or vehicle via intravenous injection or 100 mg/kg YJ1206 or vehicle, with or without 15 mg/kg uprosertib by oral gavage. Treatments were administered three times weekly for three to four weeks.
For the 22Rv1 castration-resistant tumor model, mice underwent castration and then 12 days of recovery. Subsequently, 1 × 10^6 22Rv1 cells were subcutaneously injected into both dorsal flanks using a serum-free medium with 50% Matrigel (BD Biosciences). […]

WA74 PDX = test: WA74 patient-derived xenograft efficacy; type: in vivo, mouse
Method: as §1, §2

CDK12 and CDK13 = conditions: VCaP cells
Method: After treatment of varying conditions, cell lysates were prepared using RIPA buffer (ThermoFisher Scientific) supplemented with cOmplete protease inhibitor cocktail tablets (Sigma-Aldrich). The Pierce BCA Protein Assay Kit ([…]) was used to determine the protein concentrations. Proteins with an equal amount from each sample were loaded on NuPAGE 3–8% Tris-Acetate or 4–12% Bis-Tris protein gels (ThermoFisher Scientific) and subsequently transferred to membranes, which were blocked using 5% nonfat milk. Following blocking at room temperature for 1 h, the membrane was further incubated with varying primary antibodies at 4°C overnight. HRP-conjugated secondary antibodies were used for detection, and membrane imaging was conducted using an Odyssey Fc Imager (LI-COR Biosciences).

O=C1CCC(N2C(=O)c3cccc(OCC(=O)N4CCN(c5ccc(N(C(=O)NCc6ccccc6)C6CCC(Nc7ncc8ccccc8n7)CC6)cc5)CC4)c3C2=O)C(=O)N1 (stereo not drawn) [YJ9069]
progressive disease (PD), waterfall plot (RECIST) (PC310 PDX): 63% | stable disease (SD), waterfall plot (RECIST) (PC310 PDX): 31% | toxicity ([1]; CD-1 female mice): no significant toxicity was observed | genitourinary (GU) weight ([1]; CD-1 male mice): decrease in genitourinary (GU) weight | serum chemistry and complete blood analyses ([1]; CD-1 male mice): no significant changes | body weight loss ([1]; CD-1 male mice, doses of 30 mg/kg and 50 mg/kg, 3x/week): 10% | toxicity in vivo ([1]; administered intravenously): mild to intermediate toxicity | AUC(0-t) ([2]; iv, i.v. 2.5 mg/kg): 3150 ng·h/mL | Cmax ([2]; iv, i.v. 2.5 mg/kg): 3650 ng/mL | Tmax ([2]; iv, i.v. 2.5 mg/kg): 0.08 h | clearance ([2]; iv, i.v. 2.5 mg/kg): 13.1 mL/min/kg | half-life ([2]; iv, i.v. 2.5 mg/kg): 5.23 h | AUC ([2]; iv, i.v. 2.5 mg/kg): 3220 ng·h/mL | bioavailability ([2]; oral, p.o. 10 mg/kg vs i.v. 2.5 mg/kg, read-out: F% (oral bioavailability)): 1.02% | AUC(0-t) ([2]; po, p.o. 10 mg/kg): 128 ng·h/mL | Cmax ([2]; po, p.o. 10 mg/kg): 55 ng/mL | Tmax ([2]; po, p.o. 10 mg/kg): 0.25 h | half-life ([2]; po, p.o. 10 mg/kg): 2.44 h | AUC ([2]; po, p.o. 10 mg/kg): 145 ng·h/mL | pIC50 [3]: < 5.00 | pIC50 (prostate cancer cells): > 6.70 | body weight loss in the treated animals [4]: less than 20% | anti-tumor effect (regression) (WA74 PDX; 30 mg/kg, 3 times/week, 21 days): regression in all animals | partial response (PR), waterfall plot (RECIST) (WA74 PDX; i.v. 30 mg/kg 2x/week): 43% | stable disease (SD), waterfall plot (RECIST) (WA74 PDX; i.v. 30 mg/kg 2x/week): 43% | partial response (PR), waterfall plot (RECIST) (WA74 PDX; i.v. 30 mg/kg 3x/week): 100% | CDK12/13 degradation (immunoblot) (CDK12 and CDK13): enhanced degradation of both CDK12 and CDK13 proteins compared to 7f
